Source: patent publication US12090163B2, “Pharmaceutical compositions” (CIPLA LIMITED, priority 2017, dated 2024)
Like-named read-outs stand apart in the source and are kept apart here.

Assays:
HIV-1NL4-3 = assay: Two-drug combination anti-HIV assay in MT4 cells, MacSynergy II analysis; assay type: cell-based; parameters: Antiviral Activity Synergy volume / Antiviral Activity Antagonism volume: unit not given here
Procedure: (§1) This two-drug combination analysis study was performed using the Prichard and Shipman MacSynergy II three dimensional model for statistical evaluation of combination anti-HIV assays. Using a standardized microtiter plate format, each combination assay was performed in MT4 cells acutely infected with HIV-1NL4-3.
(§2) MT4 cells (obtained from the NIH AIDS Research and Reference Reagent Program) were passaged in T-75 flasks prior to use in the antiviral assay. On the day preceding the assay, the cells were split 1:2 to assure they were in an exponential growth phase at the time of infection. Total cell and viability quantification was performed using a hemacytometer and trypan blue exclusion. Cells with greater than 95% cell viability were utilized in the assay. The cells were re-suspended in tissue culture medium and added to the drug-containing microtiter plates in a volume of 110 μL and at a seeding density of 5.0×10^3 cells/well.
(§3) Combination antiviral efficacy was evaluated on three identical assay plates (i.e., triplicate measurements) that included cell control wells (cells only) and virus control wells (cells plus virus). Combination cytotoxicity was evaluated in parallel on two identical assay plates (i.e., duplicate measurements) that included cell control wells.

MT4 cells = assay: Two-drug combination cytotoxicity in uninfected MT4 cells, MacSynergy II analysis
Procedure: as §1, §2, §3

[1] = two-drug combination with the pivalate fumarate, HIV-1NL4-3 in MT4 cells
[2] = two-drug combination with the pivalate fumarate, MT4 cells infected with HIV-1NL4-3
[3] = two-drug combination with the pivalate fumarate, uninfected MT4 cells

Row | Molecule | Interpretation Antiviral (HIV-1NL4-3; [1]) | Antiviral Activity Antagonism volume (HIV-1NL4-3; [2]) | Antiviral Activity Synergy volume (HIV-1NL4-3; [2]) | also measured
1 | COC(=O)N[C@H](C(=O)N[C@@H](Cc1ccccc1)[C@@H](O)CN(Cc1ccc(-c2ccccn2)cc1)NC(=O)[C@@H](NC(=O)OC)C(C)(C)C)C(C)(C)C [Atazanavir] | Additive | −3.50 | 39.1 | –
2 | CC(C)c1nc(CN(C)C(=O)N[C@@H](CCN2CCOCC2)C(=O)N[C@H](CC[C@H](Cc2ccccc2)NC(=O)OCc2cncs2)Cc2ccccc2)cs1 [Cobicistat] | Additive | −6.12 | 0 | –
3 | CC(C)CN(C[C@@H](O)[C@H](Cc1ccccc1)NC(=O)O[C@H]1CO[C@H]2OCC[C@H]21)S(=O)(=O)c1ccc(N)cc1 [Darunavir] | – | – | – | Antiviral Activity Antagonism volume (HIV-1NL4-3): 188/−36.5; Antiviral Activity Synergy volume (HIV-1NL4-3): 188/−36.5
4 | C[C@@H]1CCO[C@H]2Cn3cc(C(=O)NCc4ccc(F)cc4F)c(=O)c(O)c3C(=O)N12 [Dolutegravir] | Additive | −4.46 | 17.9 | –
5 | O=C1Nc2ccc(Cl)cc2[C@@](C#CC2CC2)(C(F)(F)F)O1 [Efavirenz] | – | −5.92 | 79.0 | –
6 | COc1cc2c(cc1Cc1cccc(Cl)c1F)c(=O)c(C(=O)O)cn2[C@H](CO)C(C)C [Elvitegravir] | – | 0 | 67.3 | –
7 | Nc1nc(=O)n([C@@H]2CS[C@H](CO)O2)cc1F [Emtricitabine] | – | −8.75 | 98.8 | –
8 | Cc1ccnc2c1NC(=O)c1cccnc1N2C1CC1 [Nevirapine] | Additive | −9.09 | 47.6 | –
9 | Cc1nnc(C(=O)NC(C)(C)c2nc(C(=O)NCc3ccc(F)cc3)c(O)c(=O)n2C)o1 [Raltegravir] | – | – | – | Cytotoxicity Antagonism volume (MT4 cells; [3]): −4.70; Interpretation Cytotoxicity (MT4 cells; [3]): Additive; Antiviral Activity Antagonism volume (HIV-1NL4-3): 1.61/−2.72; Antiviral Activity Synergy volume (HIV-1NL4-3): 1.61/−2.72; Interpretation Antiviral (HIV-1NL4-3): Additive
10 | C[C@H](Cn1cnc2c(N)ncnc21)OCP(=O)(O)O [Tenofovir, 9-R-[(2-phosphonomethoxy)propyl]adenine] | – | – | – | Cytotoxicity Antagonism volume (MT4 cells): 0/0; Cytotoxicity Synergy volume (MT4 cells): 0/0; Interpretation Cytotoxicity (MT4 cells; [3]): Additive; Antiviral Activity Antagonism volume (HIV-1NL4-3): 79.0/−7.08; Antiviral Activity Synergy volume (HIV-1NL4-3): 79.0/−7.08
11 | Tenofovir alafenamide hemifumarate [TAF] | Additive | −47.1 | 41.2 | Cytotoxicity Antagonism volume (MT4 cells; [3]): 0/0; Cytotoxicity Synergy volume (MT4 cells; [3]): 0/0; Interpretation Cytotoxicity (MT4 cells; [3]): Additive
